How the values were obtained:
[1] = tested on: Mycobacterium tuberculosis Erdman (autoluminescent); test: total FIC50 (Loewe) at 50% inhibition, three-drug combination (log2); higher = more antagonistic
Procedure: (§1)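 DiaMOND equipotent three-drug combination dose responses (10 doses, 1.5- or 2-fold spacing, centred on IC90) against autoluminescent M. tuberculosis Erdman in 8 in vitro models. Read-out is OD600, or luminescence for the intracellular and dormancy models, normalised to untreated wells. Hill-fit Einf, AUC25 and GRinf are potency metrics; FIC50 and FIC90 are total Loewe fractional inhibitory concentrations as log2 (negative = synergy).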

[2] = tested on: Mycobacterium tuberculosis Erdman (autoluminescent); test: total FIC90 (Loewe) at 90% inhibition, three-drug combination (log2); higher = more antagonistic
Procedure: as §1

[3] = tested on: Mycobacterium tuberculosis Erdman (autoluminescent); test: Einf, fitted maximum growth inhibition of three-drug combination (fraction); higher = stronger maximal inhibition
Procedure: as §1

[4] = tested on: Mycobacterium tuberculosis Erdman (autoluminescent); test: AUC25, normalised area under dose response up to IC25 (three-drug combination) (fraction (0-1)); higher = more potent at low dose
Procedure: as §1

[5] = tested on: Mycobacterium tuberculosis Erdman (autoluminescent); test: GRinf, maximum normalised growth rate inhibition (three-drug combination) (unitless (-1 to 1)); higher = less effect (negative = killing)
Procedure: as §1

COc1nc2ccc(Br)cc2cc1[C@@H](c1ccccc1)[C@@](O)(CCN(C)C)c1cccc2ccccc12 [bedaquiline] + COc1c(N2C[C@@H]3CCCN[C@@H]3C2)c(F)cc2c(=O)c(C(=O)O)cn(C3CC3)c12 [moxifloxacin] + O=[N+]([O-])c1cn2c(n1)OC[C@@H](OCc1ccc(OC(F)(F)F)cc1)C2 [pretomanid]
Conditions | AUC25, [4] | Einf, [3] | GRinf, [5] | total FIC50, [1] | total FIC90, [2]
in vitro model: acidic pH 5.7, time point: constant (~7 days, model-specific) | 0.1 | 0.838 | -0.377 | 0.596 | –
in vitro model: acidic pH 5.7, time point: terminal (~4-5 doublings, model-specific) | 0.0692 | 0.971 | -0.329 | 0.946 | 0.743
in vitro model: intracellular J774, time point: constant = terminal | – | 0.972 | -0.42 | – | 0.518

Conditions | AUC25, [4] | Einf, [3] | GRinf, [5] | total FIC50, [1] | total FIC90, [2]
in vitro model: butyrate, time point: constant (~7 days, model-specific) | 0.11 | 0.974 | -0.202 | 0.96 | 1.4
in vitro model: butyrate, time point: terminal (~4-5 doublings, model-specific) | 0.0807 | 0.979 | -0.386 | 1.02 | 1.52
in vitro model: cholesterol 0.05 mM, time point: constant (~7 days, model-specific) | 0.102 | 0.689 | -0.187 | 0.771 | –
in vitro model: cholesterol 0.05 mM, time point: terminal (~4-5 doublings, model-specific) | 0.0953 | 0.946 | -0.21 | 0.672 | 0.565
in vitro model: cholesterol-high 0.2 mM, time point: constant (~7 days, model-specific) | 0.0866 | 0.945 | -0.309 | 0.743 | 1.24
in vitro model: cholesterol-high 0.2 mM, time point: terminal (~4-5 doublings, model-specific) | 0.082 | 1 | -0.571 | 0.598 | 0.93
in vitro model: dormancy (butyrate + nitrate, low O2), time point: constant (~7 days, model-specific) | 0.0412 | 0.905 | 0.272 | 0.0257 | -0.733
in vitro model: dormancy (butyrate + nitrate, low O2), time point: terminal (~4-5 doublings, model-specific) | 0.0577 | 0.995 | -0.1 | 0.157 | 0.118
in vitro model: standard 7H9 glycerol, time point: constant = terminal | 0.08 | 0.98 | -0.122 | -0.0856 | -0.137
in vitro model: valerate, time point: constant (~7 days, model-specific) | 0.123 | 0.932 | -0.393 | 0.261 | –
in vitro model: valerate, time point: terminal (~4-5 doublings, model-specific) | 0.0843 | 0.956 | -0.165 | 0.431 | 0.866

COc1nc2ccc(Br)cc2cc1[C@@H](c1ccccc1)[C@@](O)(CCN(C)C)c1cccc2ccccc12 [bedaquiline] + NC(=O)c1cnccn1 [pyrazinamide] + CO[C@H]1/C=C/O[C@@]2(C)Oc3c(C)c(O)c4c(O)c(c(/C=N/N5CCN(C6CCCC6)CC5)c(O)c4c3C2=O)NC(=O)/C(C)=C\C=C\[C@H](C)[C@H](O)[C@@H](C)[C@@H](O)[C@@H](C)[C@H](OC(C)=O)[C@@H]1C [rifapentine]
Conditions | AUC25, [4] | Einf, [3] | GRinf, [5] | total FIC50, [1] | total FIC90, [2]
in vitro model: acidic pH 5.7, time point: constant (~7 days, model-specific) | 0.105 | 0.951 | -0.444 | 0.212 | –
in vitro model: acidic pH 5.7, time point: terminal (~4-5 doublings, model-specific) | 0.0905 | 0.987 | -0.331 | 0.0918 | 0.167
in vitro model: intracellular J774, time point: constant = terminal | – | 0.984 | -0.419 | – | 0.111

Conditions | AUC25, [4] | Einf, [3] | GRinf, [5] | total FIC50, [1] | total FIC90, [2]
in vitro model: butyrate, time point: constant (~7 days, model-specific) | 0.109 | 0.973 | -0.292 | 0.368 | 0.452
in vitro model: butyrate, time point: terminal (~4-5 doublings, model-specific) | 0.0948 | 0.995 | -0.264 | 0.608 | 0.896
in vitro model: cholesterol 0.05 mM, time point: constant (~7 days, model-specific) | 0.113 | 0.75 | -0.416 | – | –
in vitro model: cholesterol 0.05 mM, time point: terminal (~4-5 doublings, model-specific) | 0.0882 | 0.854 | -0.194 | 0.907 | –
in vitro model: cholesterol-high 0.2 mM, time point: constant (~7 days, model-specific) | 0.0619 | 0.959 | -0.405 | 0.688 | –
in vitro model: cholesterol-high 0.2 mM, time point: terminal (~4-5 doublings, model-specific) | 0.0597 | 1 | -0.644 | 1.1 | 0.6
in vitro model: dormancy (butyrate + nitrate, low O2), time point: constant (~7 days, model-specific) | 0.0664 | 0.907 | 0.181 | -0.395 | -0.492
in vitro model: dormancy (butyrate + nitrate, low O2), time point: terminal (~4-5 doublings, model-specific) | 0.0515 | 0.988 | -0.135 | 0.0969 | -0.227
in vitro model: standard 7H9 glycerol, time point: constant = terminal | 0.0752 | 0.917 | 0.0581 | -0.269 | –
in vitro model: valerate, time point: constant (~7 days, model-specific) | 0.0676 | 0.855 | -0.194 | 0.992 | –
in vitro model: valerate, time point: terminal (~4-5 doublings, model-specific) | 0.0334 | 0.939 | -0.182 | 0.965 | 0.779

COc1nc2ccc(Br)cc2cc1[C@@H](c1ccccc1)[C@@](O)(CCN(C)C)c1cccc2ccccc12 [bedaquiline] + NC(=O)c1cnccn1 [pyrazinamide] + CO[C@H]1/C=C/O[C@@]2(C)Oc3c(C)c(O)c4c(O)c(c(/C=N/N5CCN(C)CC5)c(O)c4c3C2=O)NC(=O)/C(C)=C\C=C\[C@H](C)[C@H](O)[C@@H](C)[C@@H](O)[C@@H](C)[C@H](OC(C)=O)[C@@H]1C [rifampicin]
Conditions | AUC25, [4] | Einf, [3] | GRinf, [5] | total FIC50, [1] | total FIC90, [2]
in vitro model: acidic pH 5.7, time point: constant (~7 days, model-specific) | 0.0834 | 0.901 | -0.315 | 0.337 | –
in vitro model: acidic pH 5.7, time point: terminal (~4-5 doublings, model-specific) | 0.0711 | 0.981 | -0.241 | 0.285 | -0.207
in vitro model: intracellular J774, time point: constant = terminal | – | 0.999 | -0.44 | – | 0.24

Conditions | AUC25, [4] | Einf, [3] | GRinf, [5] | total FIC50, [1] | total FIC90, [2]
in vitro model: butyrate, time point: constant (~7 days, model-specific) | 0.118 | 0.967 | -0.45 | 0.454 | 0.281
in vitro model: butyrate, time point: terminal (~4-5 doublings, model-specific) | 0.11 | 0.993 | -0.729 | 0.529 | 0.948
in vitro model: cholesterol 0.05 mM, time point: constant (~7 days, model-specific) | 0.102 | 0.776 | -0.214 | – | –
in vitro model: cholesterol 0.05 mM, time point: terminal (~4-5 doublings, model-specific) | 0.0832 | 0.929 | -0.267 | 1.1 | –
in vitro model: cholesterol-high 0.2 mM, time point: constant (~7 days, model-specific) | 0.0476 | 0.933 | -0.352 | 0.834 | –
in vitro model: cholesterol-high 0.2 mM, time point: terminal (~4-5 doublings, model-specific) | 0.0598 | 1 | -0.624 | 1.34 | 0.74
in vitro model: dormancy (butyrate + nitrate, low O2), time point: constant (~7 days, model-specific) | 0.0673 | 0.914 | 0.179 | -0.454 | -0.722
in vitro model: dormancy (butyrate + nitrate, low O2), time point: terminal (~4-5 doublings, model-specific) | 0.0465 | 0.984 | -0.139 | -0.149 | -0.476
in vitro model: standard 7H9 glycerol, time point: constant = terminal | 0.0766 | 0.913 | 0.0332 | 0.401 | –
in vitro model: valerate, time point: constant (~7 days, model-specific) | 0.0558 | 0.839 | 0.0298 | 0.905 | –
in vitro model: valerate, time point: terminal (~4-5 doublings, model-specific) | 0.032 | 0.935 | 0.00447 | 0.857 | 0.584

From the supplement of paper PMC8617591
